Source: ChEMBL document CHEMBL1135441, “Elevation of ligand binding to muscarinic M(2) acetylcholine receptors by bis(ammonio)alkane-type allosteric modulators” (J Med Chem, 2002)

Target: Muscarinic acetylcholine receptor M2 (Sus scrofa) (UniProt P06199)
Experiment: Binding of [3H]N-methylscopolamine at porcine heart Muscarinic acetylcholine receptor M2 and negative log of the equilibrium dissociation constant was reported

Muscarinic acetylcholine receptor M2 (Sus scrofa), sequence (P06199 whole entry, looked up): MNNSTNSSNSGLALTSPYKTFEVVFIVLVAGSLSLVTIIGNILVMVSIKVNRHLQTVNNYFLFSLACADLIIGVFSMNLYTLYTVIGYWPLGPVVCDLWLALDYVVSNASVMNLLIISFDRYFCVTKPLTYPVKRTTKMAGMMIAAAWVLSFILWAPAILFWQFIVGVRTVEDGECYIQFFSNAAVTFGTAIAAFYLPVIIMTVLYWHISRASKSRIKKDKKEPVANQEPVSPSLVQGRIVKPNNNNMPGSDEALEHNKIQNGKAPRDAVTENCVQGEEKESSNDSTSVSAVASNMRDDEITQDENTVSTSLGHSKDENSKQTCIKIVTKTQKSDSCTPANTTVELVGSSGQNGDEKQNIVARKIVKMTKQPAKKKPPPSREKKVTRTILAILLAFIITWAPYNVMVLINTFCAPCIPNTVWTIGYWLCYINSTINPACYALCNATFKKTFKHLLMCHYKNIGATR

| pKA | SMILES |
| --- | --- |
| 7.2 | Cc1ccc2c(c1)C(=O)N(CCC[N+](C)(C)CCCCCC[N+](C)(C)CC(C)(C)CN1C(=O)c3ccccc3C1=O)C2=O |
| 7.26 | Cc1ccc2c(c1)C(=O)N(CC(C)(C)C[N+](C)(C)CCCCCC[N+](C)(C)CCCN1C(=O)c3ccccc3C1=O)C2=O |
| 7.41 | Cc1ccc2c(c1)C(=O)N(CCC[N+](C)(C)CCCCCC[N+](C)(C)CC(C)(C)CN1C(=O)c3ccc(C)cc3C1=O)C2=O |
| 7.21 | Cc1ccc2c(c1)C(=O)N(CC(C)(C)C[N+](C)(C)CCCCCC[N+](C)(C)CC(C)(C)CN1C(=O)c3ccc(C)cc3C1=O)C2=O |

Second part, the compound before the results:

| SMILES | pKA |
| --- | --- |
| CC(C)(CN1C(=O)c2ccccc2C1=O)C[N+](C)(C)CCCCCC[N+](C)(C)CCCN1C(=O)c2ccccc2C1=O | 6.9 |
| C[N+](C)(CCCCCC[N+](C)(C)CCCN1C(=O)c2ccccc2C1=O)CCCN1C(=O)c2ccccc2C1=O | 6.53 |
| Cc1ccc2c(c1)C(=O)N(CCC[N+](C)(C)CCCCCC[N+](C)(C)CCCN1C(=O)c3ccccc3C1=O)C2=O | 6.89 |
| Cc1ccc2c(c1)C(=O)N(CCC[N+](C)(C)CCCCCC[N+](C)(C)CCCN1C(=O)c3ccc(C)cc3C1=O)C2=O | 7.08 |
| CC(C)(CN1C(=O)c2ccccc2C1=O)C[N+](C)(C)CCCCCC[N+](C)(C)CC(C)(C)CN1C(=O)c2ccccc2C1=O | 7.08 |
